Source: US9132200B2, “Oligomer-calcium channel blocker conjugates” (NEKTAR THERAPEUTICS, priority 2007, dated 2015)
Where two headings read alike, the source gives them in different places.

Target: calcium channel (Rattus norvegicus, UniProt P22002)
Test: Calcium channel binding assay similar to Example 3, 3[H]-diltiazem as competing radioligand
Description: […] […] The reactions were carried out in 50 mM TRIS-HCl (pH 7.7) at 25° C. for 60 minutes. The reaction was terminated by rapid vacuum filtration onto glass fiber filters. […] Molecular Pharmacology 25, 235-241 (1984)).

[1] = Binding Assay No. 2 (Table 2), 3[H]-diltiazem radioligand

Chain of calcium channel (P22002 whole entry): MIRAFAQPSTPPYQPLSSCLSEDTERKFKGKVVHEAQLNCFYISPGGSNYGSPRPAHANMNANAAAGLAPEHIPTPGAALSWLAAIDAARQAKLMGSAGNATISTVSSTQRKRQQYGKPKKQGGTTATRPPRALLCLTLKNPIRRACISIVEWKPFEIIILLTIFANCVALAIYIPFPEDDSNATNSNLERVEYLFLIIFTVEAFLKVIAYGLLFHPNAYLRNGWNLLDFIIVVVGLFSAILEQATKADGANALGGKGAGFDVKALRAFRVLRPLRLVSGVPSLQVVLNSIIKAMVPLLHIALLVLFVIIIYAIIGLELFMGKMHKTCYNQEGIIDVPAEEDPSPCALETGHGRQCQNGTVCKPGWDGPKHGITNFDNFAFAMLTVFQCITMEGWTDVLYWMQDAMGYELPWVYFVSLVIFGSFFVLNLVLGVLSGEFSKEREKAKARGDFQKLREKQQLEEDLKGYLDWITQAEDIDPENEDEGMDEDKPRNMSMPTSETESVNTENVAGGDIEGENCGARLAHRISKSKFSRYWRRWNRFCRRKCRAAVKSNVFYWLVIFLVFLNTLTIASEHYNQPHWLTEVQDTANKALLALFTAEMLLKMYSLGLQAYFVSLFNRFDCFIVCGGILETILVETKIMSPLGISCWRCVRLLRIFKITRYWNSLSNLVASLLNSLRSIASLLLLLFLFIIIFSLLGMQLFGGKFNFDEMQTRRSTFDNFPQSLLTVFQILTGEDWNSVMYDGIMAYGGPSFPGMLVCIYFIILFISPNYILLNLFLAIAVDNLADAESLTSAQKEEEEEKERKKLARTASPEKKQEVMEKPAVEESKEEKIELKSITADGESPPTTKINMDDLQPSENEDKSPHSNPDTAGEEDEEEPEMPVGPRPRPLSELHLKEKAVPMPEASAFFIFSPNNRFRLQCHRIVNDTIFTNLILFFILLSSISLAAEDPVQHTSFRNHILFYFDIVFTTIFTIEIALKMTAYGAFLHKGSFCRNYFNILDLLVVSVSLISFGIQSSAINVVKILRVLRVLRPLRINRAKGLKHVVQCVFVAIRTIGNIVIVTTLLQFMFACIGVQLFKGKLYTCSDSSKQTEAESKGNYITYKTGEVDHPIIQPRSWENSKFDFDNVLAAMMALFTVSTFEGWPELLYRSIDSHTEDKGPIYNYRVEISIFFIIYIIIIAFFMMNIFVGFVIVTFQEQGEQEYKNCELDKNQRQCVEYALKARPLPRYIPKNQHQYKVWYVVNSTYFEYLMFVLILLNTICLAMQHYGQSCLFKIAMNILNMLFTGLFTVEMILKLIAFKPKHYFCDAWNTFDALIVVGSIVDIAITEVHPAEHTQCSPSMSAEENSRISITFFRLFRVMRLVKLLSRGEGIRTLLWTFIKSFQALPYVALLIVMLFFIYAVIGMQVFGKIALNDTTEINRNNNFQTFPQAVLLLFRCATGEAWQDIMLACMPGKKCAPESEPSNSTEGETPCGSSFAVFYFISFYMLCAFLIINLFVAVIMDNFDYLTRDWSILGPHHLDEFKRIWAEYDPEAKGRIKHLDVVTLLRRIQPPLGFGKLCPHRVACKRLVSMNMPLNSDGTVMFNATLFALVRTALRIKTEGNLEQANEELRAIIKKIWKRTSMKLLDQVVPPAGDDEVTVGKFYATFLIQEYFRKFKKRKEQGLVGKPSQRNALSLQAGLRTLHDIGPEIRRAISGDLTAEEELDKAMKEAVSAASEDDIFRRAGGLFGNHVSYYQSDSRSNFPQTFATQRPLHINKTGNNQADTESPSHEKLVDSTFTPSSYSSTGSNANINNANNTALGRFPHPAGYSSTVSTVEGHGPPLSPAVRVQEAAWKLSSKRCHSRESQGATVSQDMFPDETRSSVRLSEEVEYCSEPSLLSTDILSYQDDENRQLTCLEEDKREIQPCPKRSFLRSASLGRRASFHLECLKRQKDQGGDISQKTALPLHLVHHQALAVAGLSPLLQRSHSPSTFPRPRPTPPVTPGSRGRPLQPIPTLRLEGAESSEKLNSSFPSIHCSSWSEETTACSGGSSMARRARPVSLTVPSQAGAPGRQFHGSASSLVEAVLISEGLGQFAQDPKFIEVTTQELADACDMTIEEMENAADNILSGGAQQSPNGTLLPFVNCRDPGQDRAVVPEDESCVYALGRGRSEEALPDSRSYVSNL

SMILES | IC50 [1] [nM] | IC50 [nM]
COCCOCCOCCOc1ccc(CCN(C)CCCC(C#N)(c2ccc(OC)c(OC)c2)C(C)C)cc1OC (stereo not shown) [mPEG3-O-Verapamil, O-mPEG3-verapamil] | 541 | 
COCCOCCOCCOCCOCCOc1ccc(CCN(C)CCCC(C#N)(c2ccc(OC)c(OC)c2)C(C)C)cc1OC (stereo not shown) [mPEG5-O-Verapamil, O-mPEG5-verapamil] | 852 | 
COCCOCCOCCOCCOCCOCCOc1ccc(CCN(C)CCCC(C#N)(c2ccc(OC)c(OC)c2)C(C)C)cc1OC (stereo not shown) [mPEG6-O-Verapamil, O-mPEG6-verapamil] |  | 349
COCCOCCOCCOCCOCCOCCOCCOc1ccc(CCN(C)CCCC(C#N)(c2ccc(OC)c(OC)c2)C(C)C)cc1OC (stereo not shown) [mPEG7-O-Verapamil, O-mPEG7-verapamil] | 1130 | 
